Legend:
in vivo [1] = settings: male, Sprague Dawley, rat; for half-life: T1/2; for bioavailability: % F; for AUC(0-t): AUC0-t
Procedure: Certain drug coated microarrays were tested in vivo in a preclinical model using Sprague Dawley rats. […] Male Sprague Dawley rats with jugular vein catheters were purchased from Charles River Laboratories. Once received, they were acclimated for at least 24 hours prior to dosing.
Typically, one hour prior to dosing microneedle arrays were removed from refrigeration (approximately 4° C.) and allowed to equilibrate to room temperature.
The standard procedure for skin preparation and microneedle array application is as follows.
One day prior to dosing, an area just above the hind legs on the dorsal surface of the rat was shaved using electric clippers. Nair® hair removal lotion (Church & Dwight Co.) was then applied to the area for 5 to 8 minutes to remove remaining fur stubble. The Nair® lotion was then thoroughly removed using a damp cloth. The next day a microneedle array was applied using a spring-loaded applicator. The microneedle array was left in contact with skin for five minutes, before being removed. During array application and contact time the rats were manually restrained.
Blood was collected at three time points from each animal out of a possible total of five time destinations (5 minutes, 15 minutes, 30 minutes, 45 minutes, 90 minutes) from each rat on a staggered schedule so that all time points would be represented with extra sampling at 15 minutes without overdrawing from any animal. Approximately 1 mL of blood was collected via the catheter from the jugular vein using a syringe and needle from rats for their first two blood draws. For the terminal blood collection, animals were euthanized via CO2 chamber and approximately 1 mL of blood was collected via cardiac puncture. The blood was immediately transferred to a serum separator tube that contained 25 μL of a 2.5 mg/ml aprotinin (Sigma) solution.
Blood was collected from each rat 5, 10, 15, 30 and 45 minutes post dose. Approximately 600 μL of blood was collected via the catheter from the jugular vein using a syringe and needle from rats for their first four blood draws. For the terminal blood collection, animals were euthanized via CO2 chamber and approximately 600 μL of blood was collected via cardiac puncture. The blood was immediately transferred to a serum separator tube that contained 12 μL of a 2.5 mg/ml aprotinin (Sigma) solution.
Blood was collected three or four times from each rat at the time points depicted in the tables below. Approximately 1 mL of blood was collected via the catheter from the jugular vein using a syringe and needle from rats for any non-terminal time points. For the terminal blood collection, animals were euthanized via CO2 chamber and approximately 1 mL of blood was collected via cardiac puncture. The blood was immediately transferred to a serum separator tube that contained 20 μL of a 2.5 mg/ml aprotinin (Sigma) solution.
Blood was collected from each rat 5, 15, 30, 45, 90 and 120 minutes post dose. Approximately 500 μL of blood was collected via the catheter from the jugular vein using a syringe and needle from rats for their first five blood draws. For the terminal blood collection, animals were euthanized via CO2 chamber and approximately 500 μL of blood was collected via cardiac puncture.

in vivo [2] = settings: Sprague-Dawley, rat, 13.6 ug
Procedure: Several additional single dose pharmacokinetic studies were performed in Sprague-Dawley rats.
Dose Administration Typically, one day prior to dosing, an area just above the hind legs on the dorsal side of the rat was shaved using electric clippers. Nair® hair removal lotion was then applied to the area for 5 to 8 minutes to remove remaining hair stubble. The Nair lotion was removed completely using a cloth dampened with water. The next day the microneedle array was applied using the supplied spring loaded applicator. The microneedle array was left in contact with the skin for either five minutes before removal or removed almost immediately (typically 2-3 seconds after skin contact). During microneedle application and contact, the rats were manually restrained.
Serum Sample Collection Blood was collected from each rat at 5, 15, 30, 45 and 90 minutes after application of microneedle arrays, for LCP-microneedle arrays and at 1, 5, 15 and 30 minutes after application for PC-microneedle arrays. Approximately 600 μL of blood was collected via the catheter from the jugular vein using a syringe and needle from rats for their first four blood draws. For the last blood collection, animals were euthanized via CO2 chamber and approximately 600 μL of blood was collected via cardiac puncture. The blood was immediately transferred to a serum separator tube that contained 12 μL of a 2.5 mg/ml aprotinin (Sigma) solution.

[3] = 31 ug, Concentration of Peptide in Serum, Mean
[4] = 32 ug, Concentration of Peptide in Serum, Mean
[5] = 32 ug, Concentrations of Peptide in Serum
[6] = 45.6 ug, Concentration of Peptide in Serum, Mean
[7] = 54 ug, Concentrations of Peptide in Serum
[8] = 57.7 ug, Concentration of Peptide in Serum, Mean
[9] = 67.7 ug, Concentration of Peptide in Serum, Mean
[10] = 141.9 ug, Concentration of Peptide in Serum, Mean
[11] = 386.5 ug, Concentration of Peptide in Serum, Mean

CC[C@H](C)[C@H](NC(=O)[C@H](CO)NC(=O)[C@H](CCCCN)NC(=O)CNC(=O)[C@H](CCCCN)NC(=O)[C@H](CC(=O)O)NC(=O)[C@H](Cc1cnc[nH]1)NC(=O)[C@H](CC(C)C)NC(=O)[C@H](CC(C)C)NC(=O)[C@H](CCC(N)=O)NC(=O)[C@H](Cc1cnc[nH]1)NC(=O)[C@H](CCC(=O)O)NC(=O)[C@H](CO)NC(=O)[C@@H](NC(=O)[C@H](C)N)C(C)C)C(=O)N[C@@H](CCC(N)=O)C(=O)N[C@@H](CC(=O)O)C(=O)N[C@@H](CC(C)C)C(=O)N[C@@H](CCCNC(=N)N)C(=O)N[C@@H](CCCNC(=N)N)C(=O)N[C@@H](CCCNC(=N)N)C(=O)N[C@@H](CCC(=O)O)C(=O)N[C@@H](CC(C)C)C(=O)N[C@@H](CC(C)C)C(=O)N[C@@H](CCC(=O)O)C(=O)N[C@@H](CCCCN)C(=O)N[C@@H](CC(C)C)C(=O)N[C@@H](CC(C)C)C(=O)NC(C)(C)C(=O)N[C@@H](CCCCN)C(=O)N[C@@H](CC(C)C)C(=O)N[C@@H](Cc1cnc[nH]1)C(=O)N[C@H](C(=O)N[C@@H](C)C(N)=O)[C@@H](C)O [Peptide]
level at 0.5 h (in vivo [1]; [3]): 12.5 ng/mL
level at 0.75 h (in vivo [1]; [3]): 4.73 ng/mL
level at 1.5 h (in vivo [1]; [3]): 1.04 ng/mL
half-life (in vivo [1]; 31 ug): 17 min
Tmax (in vivo [1]; 31 ug): 15 min
bioavailability (in vivo [1]; 32 ug): 102%
AUC(0-t) (in vivo [1]; 32 ug): 27.4 ng·h/mL
Cmax (in vivo [1]; 32 ug): 49.2 ng/mL
level at 5 min (in vivo [1]; [4]): 45.2 ng/mL
level at 0.25 h (in vivo [1]; [4]): 49.2 ng/mL
level at 0.5 h (in vivo [1]; [4]): 18.9 ng/mL
level at 0.75 h (in vivo [1]; [4]): 13.6 ng/mL
level at 1.5 h (in vivo [1]; [4]): 5.03 ng/mL
level at 5 min (in vivo [1]; [5]): 25.1 ng/mL
level at 10 min (in vivo [1]; [5]): 34.4 ng/mL
level at 0.25 h (in vivo [1]; [5]): 34 ng/mL
level at 0.5 h (in vivo [1]; [5]): 17.8 ng/mL
level at 0.75 h (in vivo [1]; [5]): 12.7 ng/mL
half-life (in vivo [1]; 32 ug): 25 min
Tmax (in vivo [1]; 32 ug): 15 min
bioavailability (in vivo [1]; 45.6 ug): 108%
AUC(0-t) (in vivo [1]; 45.6 ug): 48.7 ng·h/mL
Cmax (in vivo [1]; 45.6 ug): 88.2 ng/mL
level at 5 min (in vivo [1]; [6]): 88.2 ng/mL
level at 0.25 h (in vivo [1]; [6]): 76.1 ng/mL
level at 0.5 h (in vivo [1]; [6]): 36.1 ng/mL
level at 0.75 h (in vivo [1]; [6]): 29.3 ng/mL
level at 1.5 h (in vivo [1]; [6]): 4.79 ng/mL
half-life (in vivo [1]; 45.6 ug): 20 min
Tmax (in vivo [1]; 45.6 ug): 5 min
bioavailability (in vivo [1]; 54 ug): 37%
AUC(0-t) (in vivo [1]; 54 ug): 23 ng·h/mL
Cmax (in vivo [1]; 54 ug): 49.8 ng/mL
level at 5 min (in vivo [1]; [7]): 16.5 ng/mL
level at 0.25 h (in vivo [1]; [7]): 49.8 ng/mL
level at 0.5 h (in vivo [1]; [7]): 17.1 ng/mL
level at 0.75 h (in vivo [1]; [7]): 9.37 ng/mL
level at 1 h (in vivo [1]; [7]): 7.75 ng/mL
half-life (in vivo [1]; 54 ug): 24 min
Tmax (in vivo [1]; 54 ug): 15 min
bioavailability (in vivo [1]; 57.7 ug): 82%
AUC(0-t) (in vivo [1]; 57.7 ug): 41.8 ng·h/mL
Cmax (in vivo [1]; 57.7 ug): 60.8 ng/mL
level at 5 min (in vivo [1]; [8]): 43.1 ng/mL
level at 0.25 h (in vivo [1]; [8]): 60.8 ng/mL
level at 0.5 h (in vivo [1]; [8]): 40.1 ng/mL
level at 0.75 h (in vivo [1]; [8]): 28.1 ng/mL
level at 1.5 h (in vivo [1]; [8]): 3.72 ng/mL
half-life (in vivo [1]; 57.7 ug): 18 min
Tmax (in vivo [1]; 57.7 ug): 15 min
bioavailability (in vivo [1]; 67.7 ug): 74%
AUC(0-t) (in vivo [1]; 67.7 ug): 48.2 ng·h/mL
Cmax (in vivo [1]; 67.7 ug): 82.7 ng/mL
level at 5 min (in vivo [1]; [9]): 64.9 ng/mL
level at 0.25 h (in vivo [1]; [9]): 82.7 ng/mL
level at 0.5 h (in vivo [1]; [9]): 51.3 ng/mL
level at 0.75 h (in vivo [1]; [9]): 19.7 ng/mL
level at 1.5 h (in vivo [1]; [9]): 7.6 ng/mL
half-life (in vivo [1]; 67.7 ug): 22 min
Tmax (in vivo [1]; 67.7 ug): 15 min
AUC(0-t) (in vivo [1]; 141.9 ug): 173 ng·h/mL
Cmax (in vivo [1]; 141.9 ug): 230 ng/mL
level at 5 min (in vivo [1]; [10]): 186 ng/mL
level at 0.25 h (in vivo [1]; [10]): 230 ng/mL
level at 0.5 h (in vivo [1]; [10]): 219 ng/mL
level at 0.75 h (in vivo [1]; [10]): 91.8 ng/mL
level at 1.5 h (in vivo [1]; [10]): 23.7 ng/mL
half-life (in vivo [1]; 141.9 ug): 21 min
Tmax (in vivo [1]; 141.9 ug): 15 min
bioavailability (in vivo [1]; 386.5 ug): 22%
AUC(0-t) (in vivo [1]; 386.5 ug): 75.5 ng·h/mL
Cmax (in vivo [1]; 386.5 ug): 118 ng/mL
level at 5 min (in vivo [1]; [11]): 97.5 ng/mL
level at 0.25 h (in vivo [1]; [11]): 133 ng/mL
level at 0.5 h (in vivo [1]; [11]): 75.4 ng/mL
level at 0.75 h (in vivo [1]; [11]): 42.2 ng/mL
level at 1.5 h (in vivo [1]; [11]): 7.53 ng/mL
half-life (in vivo [1]; 386.5 ug): 18 min
Tmax (in vivo [1]; 386.5 ug): 15 min
AUC (in vivo [2]; AUC5-90, Mean): 3.68 ng·h/mL
Cmax (in vivo [2]; Cmax, Mean): 9.7 ng/mL
level at 5 min (in vivo [2]; Concentration in Serum at 5 min, Mean): 8.8 ng/mL
level at 0.25 h (in vivo [2]; Concentration in Serum at 15 min, Mean): 8.6 ng/mL
level at 0.5 h (in vivo [2]; Concentration in Serum at 30 min, Mean): 6 ng/mL
Tmax (in vivo [2]; Tmax, Mean): 9 min
